Test in all cases: inhibition of tumour cell growth, NCI panel, 48 h
The subject of assay [1] is COLO 205 colon.
For assay [2], the system named is HOP-62 NSCLC.
Assay [3] has as its system M14 melanoma.
In assay [4] the test system is NCI-H23 lung.
In assay [5] the test system is OVCAR-5 ovarian.
Assay [6] concerns PC-3 prostate.
The subject of assay [7] is RPMI-8226 leukemia.
Assay [8] deals with SN12C renal.
In assay [9] the test system is SNB-75 CNS.
Assay [10] deals with UO-31 renal.

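A five-concentration, 48-hour dose response in 96-well plates underlies each endpoint, interpolated linearly between surrounding concentrations. Abbreviation: GI50, concentration required for 50% inhibition of growth. TGI: concentration producing complete growth inhibition.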

As to `CC(=O)Oc1ccc2c(c1)CC[C@@H]1C2[C@@H](O[N+](=O)[O-])C[C@@]2(C)C1CC[C@@H]2O[N+](=O)[O-]` (stereo partly drawn), the TGI worked out at 34.2 µM in assay [1]; 15.5 µM in assay [2]; 31.6 µM in [3]; 29.2 µM in assay [4]; 33.7 µM in [5]; 22.9 µM in assay [6]. Further, the TGI worked out at 31 µM in [7], 29.5 µM in assay [8], 28.7 µM in assay [9] and 26.1 µM in assay [10].

For the compound `Cc1cc(S(=O)(=O)Nc2nnc3cnc4ccccc4n23)c(S)cc1Cl`, the TGI in assay [1], in [2], in assay [3], in assay [4], in [5] and in assay [6] was more than 100 µM in each case. Moreover, the TGI in assay [7], in assay [8], in assay [9] and in [10] was more than 100 µM each time.

`CC(=O)Nc1c(S(=O)(=O)c2ccccc2)c(C)c(C)n1Cc1ccccc1`: the TGI in assay [1], in assay [3], in [4], in [5], in assay [6] and in assay [7] was more than 100 µM in each case. The TGI in assay [8], in [9] and in assay [10] was more than 100 µM each time.

In the case of `C=C(C)COC1CCCCO1` (stereo not drawn), the TGI in [1], in [2], in assay [3], in [4], in assay [5] and in [6] was more than 100 µM each time. Moreover, the TGI in assay [7], in [8], in assay [9] and in assay [10] was more than 100 µM in each case.

Take `CC(C)(C)c1cc(OCc2nn3c(Cc4ccccc4)nnc3s2)c(Cl)cc1OCc1nn2c(Cc3ccccc3)nnc2s1`: the TGI in assay [1], in assay [2], in [3], in [4], in [5] and in assay [6] was more than 100 µM each time. In addition, the TGI in assay [7], in [8], in assay [9] and in [10] was more than 100 µM in each case.

Regarding `Clc1cccc(NN=Nc2ccc(-c3nc4ccccc4s3)cc2)c1`, the TGI in assay [1] was more than 100 µM; in [2] it was more than 100 µM; in assay [3], more than 100 µM; in [4], 63.3 µM; in [5], more than 100 µM; in assay [6], more than 100 µM. Also, the TGI is more than 100 µM in [7], 62.2 µM in assay [8], 66.1 µM in assay [9] and more than 100 µM in assay [10].

Turning to `Cc1oc2c(c1C)S(=O)(=O)C(C#N)=C(N(C)C)N2`, the TGI in [2], in [3], in assay [4], in assay [5], in [6] and in [7] was more than 100 µM throughout. The TGI in [8], in assay [9] and in [10] was more than 100 µM in each case.

Consider `Cc1ccc(-c2nc(N/N=C/c3ccc(O)cc3)c3ccccc3n2)cc1`, for which the TGI in [1] was more than 100 µM; in [2], more than 100 µM; in assay [3], 18.9 µM; in assay [4], 33.8 µM; in [5], 61.9 µM; in assay [6] it was 31.7 µM. Further, the TGI in assay [7] is more than 100 µM; in [8] it was 25.4 µM; in assay [9], 64 µM; in [10], 24.7 µM.

Turning to `CCN(CC)CCN1C(=O)c2c(c3c4ccccc4[nH]c3c3ccc4ccccc4c23)C1=O`, the GI50 in assay [1] was 2.56 µM; in assay [4], 1.69 µM; in [5] it was 1.64 µM; in assay [6], 1.44 µM; in assay [7], 2.01 µM; in assay [8] it was 1.71 µM. Moreover, the GI50 was 1.17 µM in assay [9] and 1.36 µM in assay [10]. Moreover, the TGI in [1] worked out at 10.8 µM; in assay [4] it was 3.52 µM; in [5] it was 3.09 µM; in assay [6], 3.25 µM; in assay [7], 5.65 µM; in assay [8], 3.22 µM. For the same compound, the TGI in assay [9] is 2.4 µM; in [10], 2.66 µM.

In the case of `COc1ccc(C2C(C#N)=C(S)N(C3OC(COC(C)=O)C(OC(C)=O)C(OC(C)=O)C3OC(C)=O)C(c3ccccc3)=C2C(C)=O)cc1` (stereo not drawn), the TGI in assay [1], in assay [2], in assay [3], in assay [4], in [5] and in [6] was more than 100 µM in each case. The TGI in assay [7] is more than 100 µM; in [8] it was more than 100 µM; in assay [9], more than 100 µM; in assay [10], 99.5 µM.

Consider `O=C(/C=C(\S/C=C(/c1ccccc1)N1CCn2c(C(=O)c3ccccc3)c(C(=O)c3ccccc3)c(C(=O)c3ccccc3)c21)C(=O)c1ccccc1)c1ccccc1`, for which the TGI in [1], in assay [2], in assay [3], in assay [4], in assay [5] and in [6] was more than 10 µM each time. For the same compound, the TGI in assay [7], in [8] and in assay [9] was more than 10 µM throughout.

Turning to `O=C(/C=C/c1cccc(Oc2ccccc2)c1)NCc1ccc(C(=O)NCCc2ccccc2)cc1`, the TGI in assay [1], in assay [2], in assay [3], in [4], in [5] and in assay [6] was more than 100 µM in each case. Moreover, the TGI was more than 100 µM in assay [7], more than 100 µM in assay [8], 92.6 µM in assay [9] and more than 100 µM in assay [10].

Regarding `O=C(Nc1cccc([N+](=O)[O-])c1)c1n[nH]n(-c2cccc([N+](=O)[O-])c2)c1=O`, the TGI in assay [1], in assay [2], in assay [3], in assay [4], in assay [5] and in assay [6] was more than 100 µM in each case. Moreover, the TGI in assay [7], in assay [8], in assay [9] and in assay [10] was more than 100 µM throughout.

(Values after PubChem BioAssay (NCI).)
